Data: patent US20180200259A1 (priority 2015, published 2018)
Structures can show the parent of a compound that is named as a salt. Where two headings read alike, the source gives them in different places.

How the values were obtained:
Bv-2 microglial cells = experiment: Aβ oligomer clearance measurement in Bv-2 microglial cell cultures; type: cell-based; conditions: 0.33 μM galantamine; 24 h before oligomerized Aβ1-42 (10 μM) for 6 h
Description: Aβ oligomers were prepared using beta-amyloid (1-42) from American Peptide (Product #62-0-80). One aliquot was dissolved in an adequate volume of TBS (50 mM Tris-Buffer, 150 mM NaCl, pH-7.4) to achieve a final concentration of 1.7 mg/ml (corresponding to 340 μM). The solution was sonicated for 2 minutes and then diluted 1:2 in water to obtain a final concentration of 170 μM. Next, the Aβ was allowed to aggregate at 4° C. for 48 hours. Prior to application, the solution was sonicated for another minute.
Bv-2 microglial cells were kept in culture medium (DMEM medium, 10% FBS, 2 mM glutamine, 1% Penc/Strep) until 80-90% confluency. Cells were maintained at 37° C., 95% humidity and 5% CO2. Afterwards, cells were seeded in culture medium on 24-well plates at a cell density of 1×10^5 cells per well. After 24 h, the medium was exchanged for the treatment medium (DMEM medium, 5% FBS, 2 mM glutamine). […] The medium was separated by affinity (removing monomers) and the oligomers not phagocytosed were disaggregated by hexafluoroisopropanol (HFIP) treatment and measured by MSD. […]
The immune assay was carried out according to the Mesoscale Discovery manual and plates were read on the Sector Imager (MSD). Analyte levels were evaluated according to adequate Aβ peptide standards (MSD). […] Data are presented as mean ±standard error of mean (SEM) Group differences are evaluated by one-way ANOVA.

Rat cortical neurons = experiment: Neurite assessment: Aβ1-42 oligomer injury of cortical neurons (MAP-2); type: cell-based; conditions: 1 μM; Aβ oligomer 20 μM, 24 h
Description: Rat cortical neurons were cultured as described by Callizot et al (J Neurosci Res 2013; 91:706-716). On day II of culture, Aβ oligomer solution, 20 μM, was applied. The Aβ oligomer preparation, having an average weight of 90 kDa, prepared as described by Callizot et al (op cit) contained only diffusible species, not fibrils or protofibrils. Briefly, Aβ1-42 peptide at a concentration of 40 μM was dissolved in the culture medium, gently agitated for 3 days at 37° C. in the dark, and used immediately after dilution. Test compound and BDNF (50 ng/ml) were dissolved in culture medium (maximum of 0.1% DMSO final concentration) then pre-incubated with primary cortical neurons for 24 h before the Aβ1-42 oligomer solution application
The oligomers were incubated with the neurons and various concentrations of test compound or BDNF, 50 ng/ml, the positive control, for 24 hours, in 6 replicates per condition. Then the supernatant was removed and the neurons were fixed with a cold ethanol and acetic acid solution. The cells were permeabilized with 0.4% saponin and then incubated for 2 h with mouse monoclonal antibody […] microtubule-associated protein 2 (MAP-2). Subsequently, Alexa-Fluor 488 goat anti-mouse IgG was applied, and images were obtained and analyzed automatically.

[1] = test system: CA1 pyramidal neurons in the dorsal hippocampus; experiment: Dendritic spine assessment (Afraxis ESP) after five days ip dosing; type: in vivo, mice; conditions: 0.1 mg/kg per day for five days
Description: Adult C57B16 mice, (8 weeks old) were administered vehicle or test sample, 0.005, 0.03, 0.07, 0.1 or 0.2 mg/kg, ip, per day for five days prior to sacrifice after rapid anesthetization with isofluorane. Brain tissue was sectioned into […] slices from anterior to posterior extremes.
Ballistic dye labelling was performed, followed by laser-scanning confocal microscopy (Olympus FV1000) using a 63× objective (1.42 NA) to scan individually labelled neurons at high resolution (0.103×0.103×0.33 μm voxels). Target neurons were identified in the brain region of interest by anatomical location and cell morphology. Microscopy was performed blind to experimental conditions. A minimum of 5 samples per animal were measured for each segment.
Afraxis ESP dendritic spine analysis and assessment of dendritic membrane integrity. Blind deconvolution (AutoQuant) was applied to raw three-dimensional digital images which were then analyzed for spine density and morphology by trained analysts, individual spines were measured manually for (a) head diameter, (b) length, and (c) neck thickness from image Z-stacks using custom-built Afraxis ESP software. Each dendrite was analyzed by 3 independent analysts. […]
Statistics. […] For all group comparisons of parametric values, statistical significance was determined using the analysis of variance test (ANOVA; SPSS). […]

[2] = test system: adrenal chromaffin and human neuroblastoma cells; conditions: comparison cholinesterase inhibitor; cited from earlier work
[3] = test system: mild to moderate AD patients; conditions: cited from earlier work

Question: For `COc1ccc2c3c1O[C@H]1C[C@@H](O)C=C[C@@]31CCN(C)C2` [Galantamine hydrobromide], which “Aβ1-42 oligomers in the medium” value (Bv-2 microglial cells) is on record?
Answer: The value was “reduced Aβ1-42 oligomers in the medium significantly”.

Question: And the “protective effect on neurite network reduced by Aβ oligomer” value (Rat cortical neurons)?
Answer: The value was “significant protective effect”.

Question: And the “spine density in apical dendritic samples” value [1]?
Answer: Its value is “significant increase”.

Question: With `Nc1c2c(nc3ccccc13)CCCC2` [tacrine] as the molecule, how does the “neuroprotective effect against induced apoptosis” value [2] read?
Answer: Its value is “did not occur”.

Question: For “Solanezumab: antibody directed at the central portion of Aβ”, which “functional decline as measured by the ADCS-ADL” value ([3]; Expedition I) is on record?
Answer: Its value is “not significantly affected”.

Question: And the “reduction of functional decline as measured by the ADCS-ADL” value ([3]; Expedition II)?
Answer: Its value is 19%.

Question: What about the “additional cognitive deterioration on the ADAS-cog versus placebo” value ([3]; patients not receiving cholinesterase inhibitors (no SOC)) of the same molecule?
Answer: Its value is 3.6 points.

Question: What about the “additional cognitive deterioration on the ADAS-cog versus placebo” value ([3]; patients on memantine only) of the same molecule?
Answer: Its value is 4.1 points.
